How the values were obtained:
[1] = Cytotoxicity against WI-38 fibroblast cells; type: cell-based, human; conditions: human, WI-38 fibroblast cells
[2] = target: WT IDH1 (Homo sapiens, UniProt O75874); assay: WT IDH1 enzyme inhibition; type: biochemical; conditions: at 100 μM
[3] = tested on: WI-38 fibroblast cells; assay: Cytotoxicity against WI-38 fibroblast cells; type: cell-based, human

Sequence of WT IDH1 (O75874 whole entry): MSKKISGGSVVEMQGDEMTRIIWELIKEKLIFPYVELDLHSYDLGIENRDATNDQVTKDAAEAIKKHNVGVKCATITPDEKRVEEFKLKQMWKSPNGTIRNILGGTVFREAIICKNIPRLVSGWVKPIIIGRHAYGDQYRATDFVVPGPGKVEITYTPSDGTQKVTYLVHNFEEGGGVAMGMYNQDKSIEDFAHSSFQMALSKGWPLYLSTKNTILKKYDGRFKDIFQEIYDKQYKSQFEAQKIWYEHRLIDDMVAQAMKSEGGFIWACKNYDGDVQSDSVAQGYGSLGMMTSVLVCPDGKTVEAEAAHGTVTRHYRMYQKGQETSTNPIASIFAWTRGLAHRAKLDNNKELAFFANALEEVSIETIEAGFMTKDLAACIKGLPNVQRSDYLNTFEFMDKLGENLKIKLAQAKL

CC(C)c1cc(Cc2ccccc2)n(O)c(=O)c1 [Compound 5]
EC50 [1]: > 50 µM

O=c1cccc(Cc2ccccc2)n1O [Compound 4]
EC50 [1]: > 50 µM

O=c1ccc(Cc2ccccc2)cn1O [Compound 1]
activity against WT IDH1 [2]: no activity

Cc1cc(Cc2ccccc2)n(O)c(=O)c1 [Compound 2]
EC50 [1]: > 50 µM | cytotoxicity against human cells (in words) [3]: do not have cytotoxicity

Cc1cc(Cc2ccc(O)cc2)n(O)c(=O)c1 [Compound 3]
EC50 [1]: > 50 µM | cytotoxicity against human cells (in words) [3]: do not have cytotoxicity
